Experimental data: US20230391770A1, “METTL3 INHIBITORY COMPOUNDS” (Storm Therapeutics Limited, priority 2020, published 2023)
Like-named read-outs stand apart in the source and are kept apart here.

Target: METTL3/14 (Homo sapiens (Human), UniProt Q86U44)
Assay: METTL3/14 methyltransferase biochemical assay (RapidFire mass spectrometry, METTL3_14 RFMS)
Method: The enzymatic assay was established to determine IC50 values for inhibition of RNA methyltransferase activity. The enzyme used was full-length his-tagged METTL3 co-expressed with full length FLAG-tagged METTL14 in a baculovirus expression system. […] The reaction was incubated for further 60 minutes at room temperature, and then quenched by the addition of 40 μL 7.5% TCA with two internal product standards (D4-SAH and ^13C10-SAH). After termination, plates were sealed, centrifuged and stored at 4° C. until analysis. […] RNA methyltransferase activity was measured label free using the RapidFireTM mass spectrometry (RF/MS) platform. Stopped and stable assay plates were analyzed on the Agilent RF300 integrated autosampler/solid-phase extraction (SPE) system coupled to an ABSciex 4000 mass spectrometer for the generation of the product S-adenosyl homocysteine (SAH) and normalized to the ratio of signal of the two internal product standards, respectively. Solvent A was water containing 0.1% (v/v) TCA. Solvent B was acetonitrile/0.1% ammonium acetate (8:2, v/v).

Sequence of METTL3/14 (Q86U44 whole entry): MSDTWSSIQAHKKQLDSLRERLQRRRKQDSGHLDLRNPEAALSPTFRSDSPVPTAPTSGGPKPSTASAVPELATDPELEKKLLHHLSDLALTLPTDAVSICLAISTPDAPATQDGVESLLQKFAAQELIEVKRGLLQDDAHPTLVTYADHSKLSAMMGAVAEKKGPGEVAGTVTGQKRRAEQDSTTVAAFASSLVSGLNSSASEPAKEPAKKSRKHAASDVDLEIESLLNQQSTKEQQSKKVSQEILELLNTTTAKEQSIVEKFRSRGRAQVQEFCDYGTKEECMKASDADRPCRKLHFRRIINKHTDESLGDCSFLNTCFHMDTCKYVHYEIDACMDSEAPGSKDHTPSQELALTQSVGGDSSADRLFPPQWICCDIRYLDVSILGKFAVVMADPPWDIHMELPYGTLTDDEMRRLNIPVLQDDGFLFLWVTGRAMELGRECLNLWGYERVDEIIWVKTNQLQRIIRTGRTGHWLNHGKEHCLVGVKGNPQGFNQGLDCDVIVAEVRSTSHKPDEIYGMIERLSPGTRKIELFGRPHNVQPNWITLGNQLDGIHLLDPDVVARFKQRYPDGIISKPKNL
Sequence of METTL3/14 (Q9HCE5 whole entry partner): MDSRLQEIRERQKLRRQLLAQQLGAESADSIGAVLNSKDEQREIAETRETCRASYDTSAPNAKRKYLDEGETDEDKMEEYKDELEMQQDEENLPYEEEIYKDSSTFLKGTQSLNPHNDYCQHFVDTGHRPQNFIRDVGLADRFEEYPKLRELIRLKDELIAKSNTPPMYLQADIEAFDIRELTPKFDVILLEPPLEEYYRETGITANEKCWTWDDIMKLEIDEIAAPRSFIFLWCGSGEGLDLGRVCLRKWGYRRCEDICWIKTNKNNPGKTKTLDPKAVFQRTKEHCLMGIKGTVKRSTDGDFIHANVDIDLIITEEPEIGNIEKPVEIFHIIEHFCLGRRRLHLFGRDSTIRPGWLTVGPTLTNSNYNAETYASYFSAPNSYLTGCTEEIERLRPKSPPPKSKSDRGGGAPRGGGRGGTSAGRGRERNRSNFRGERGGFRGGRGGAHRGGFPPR

IC50 [nM] | IC50 (inhibition of RNA methyltransferase activity, 5 nM METTL3/14, 0.2 μM RNA substrate, 0.5 μM SAM, lower limit of the assay IC50=5 nM) [nM] | SMILES
719 |  | Cc1nc(C(=O)NCc2cn3cc(CNCC4CCCCC4)ccc3n2)cc(=O)n1C [Example 2, N-[(6-{[(cyclohexylmethyl)amino]methyl}imidazo[1,2-a]pyridin-2-yl)methyl]-1,2-dimethyl-6-oxo-1,6-dihydropyrimidine-4-carboxamide]
151 |  | O=C(NCc1cn2cc(CNCC3CCCCC3)ccc2n1)c1cnc2ccccc2n1 [Example 6, N-[(6-{[(cyclohexylmethyl)amino]methyl}imidazo[1,2-a]pyridin-2-yl)methyl]quinoxaline-2-carboxamide]
1400 |  | O=C(NCc1cn2cc(CNCC3CCCCC3)ccc2n1)c1ccnc2[nH]ncc12 [Example 7, N-[(6-{[(cyclohexylmethyl)amino]methyl}imidazo[1,2-a]pyridin-2-yl)methyl]-1H-pyrazolo[3,4-b]pyridine-4-carboxamide]
 | 1190 | O=C(NCc1cn2cc(CNCC3CCCCC3)ccc2n1)c1cnc2ccccc2c1 [Example 8, N-[(6-{[(cyclohexylmethyl)amino]methyl}imidazo[1,2-a]pyridin-2-yl)methyl]quinoline-3-carboxamide]
36.5 |  | O=C(NCc1cn2cc(CNCC3CCC3)ccc2n1)c1cccn2cncc12 [Example 10, N-[(6-{[(cyclobutylmethyl)amino]methyl}imidazo[1,2-a]pyridin-2-yl)methyl]imidazo[1,5-a]pyridine-8-carboxamide]
104 |  | O=C(NCc1cn2cc(CNCC3CCC3)ccc2n1)c1cccc2cncn12 [Example 11, N-[(6-{[(cyclobutylmethyl)amino]methyl}imidazo[1,2-a]pyridin-2-yl)methyl]imidazo[1,5-a]pyridine-5-carboxamide]
1070 |  | O=C(NCc1cn2cc(CNCC3CCC3)ccc2n1)c1cnc2[nH]cnc2c1 [Example 13, N-[(6-{[(cyclobutylmethyl)amino]methyl}imidazo[1,2-a]pyridin-2-yl)methyl]-3H-imidazo[4,5-b]pyridine-6-carboxamide]
14.5 |  | O=C(NCc1cn2cc(CNCC3CCC3)ccc2n1)c1cnc2[nH]ccc2c1 [Example 14, N-[(6-{[(cyclobutylmethyl)amino]methyl}imidazo[1,2-a]pyridin-2-yl)methyl]-1H-pyrrolo[2,3-b]pyridine-5-carboxamide]
27.3 |  | O=C(NCc1cn2cc(CNCC3CC(F)(F)C3)ccc2n1)c1cnc2[nH]ccc2c1 [Example 15, N-{[6-({[(3,3-difluorocyclobutyl)methyl]amino}methyl)imidazo[1,2-a]pyridin-2-yl]methyl}-1H-pyrrolo[2,3-b]pyridine-5-carboxamide]
1600 |  | Cn1ccc2cc(C(=O)NCc3cn4cc(CNCC5CCC5)ccc4n3)cnc21 [Example 16, N-[(6-{[(cyclobutylmethyl)amino]methyl}imidazo[1,2-a]pyridin-2-yl)methyl]-1-methyl-1H-pyrrolo[2,3-b]pyridine-5-carboxamide]
3820 |  | O=C(NCc1cn2cc(CNCC3CCC3)ccc2n1)c1ccc2[nH]ccc2c1 [Example 17, N-[(6-{[(cyclobutylmethyl)amino]methyl}imidazo[1,2-a]pyridin-2-yl)methyl]-1H-indole-5-carboxamide]
1260 |  | c1ccc2c(-c3cn(Cc4cn5cc(CN(CC6CCC6)CC6CCC6)ccc5n4)nn3)cncc2c1 [Example 32, bis(cyclobutylmethyl)[(2-{[4-(isoquinolin-4-yl)-1H-1,2,3-triazol-1-yl]methyl}imidazo[1,2-a]pyridin-6-yl)methyl]amine]
105 |  | Cc1ncc2c(-c3cn(Cc4cn5cc(CNCC67CC(F)(C6)C7)ccc5n4)nn3)cccn12 [Example 36, ({3-fluorobicyclo[1.1.1]pentan-1-yl}methyl)({2-[(4-{3-methylimidazo[1,5-a]pyridin-8-yl}-1H-1,2,3-triazol-1-yl)methyl]imidazo[1,2-a]pyridin-6-yl}methyl)amine]
